Paper PMC6271870, “Study on the Synthesis, Biological Activity and Spectroscopy of Naphthalimide-Diamine Conjugates” (Molecules, 2014)

Experiments:
herring sperm DNA = test: Fluorescence quenching of compound by DNA (Stern-Volmer, binding constant, thermodynamics); conditions: 7f quenched by DNA
Description: (§1) The Stern–Volmer equation is the following: F0/F = 1+ KSVc = 1+ […] where F0 and F are the ﬂuorescence intensities in the absence and presence of quencher (DNA for compound 7f or compound 7f for DNA-EB, respectively), KSV is the Stern-Volmer quenching constant, [c] is the concentration of DNA (or compound 7f), Kq is the biomolecule quenching rate constant and Kq = KSV/τ0. τ0 is the average lifetime of the molecule without any quencher and the ﬂuorescence lifetime of the biopolymer is 10^−8 s. The Stern–Volmer plots of F0/F versus [c] at the three temperatures were shown in Figure 9 and Figure 10, and the calculated KSV and Kq values were presented in Table 2 and Table 3.
(§2) When small molecules bind independently to a set of equivalent sites in a macromolecule, the binding constant (Kb) can be determined by the following equation [40, 52]: log[1/c] = log [F/(F0 − F)] + logKb(3) where Kb denotes the binding constant for interaction of naphthalimide–DNA, and F0, F, [c] have the same meanings as in Equation (2).
There are several acting forces between a small organic molecule and biomacromolecules, such as hydrophobic force, hydrogen bond, van der Waals force, electrostatic interactions, etc.
Preparation of sample is the same as that of UV-Vis measurement. Fluorescence wavelengths and intensity areas of samples were measured at following conditions: EX = 345 nm, EM = 355~600 nm temperature: 298, 303 and 310 K.

herring sperm DNA-EB = test: Fluorescence quenching of DNA-EB complex by compound (EB displacement); type: binding; conditions: DNA-EB quenched by 7f
Description: Ethidium bromide (EB) is a well known DNA intercalator, which is often used as a spectral probe to establish the mode of binding of small molecules to double-helical DNA [41]. The ﬂuorescence of EB increases after binding with DNA due to intercalation. Like EB, if naphthalimides intercalate into the helix of DNA, it would compete with EB for its intercalation sites in DNA, and the displacement of EB from the DNA–EB complex leads to a signiﬁcant decrease in the ﬂuorescence intensity of the DNA-EB complex. Therefore, herring sperm DNA-EB complex in the presence of increasing concentrations of naphthalimide-diamine conjugate 7f was also measured.
as §1, §2
There are several acting forces between a small organic molecule and biomacromolecules, such as hydrophobic force, hydrogen bond, van der Waals force, electrostatic interactions, etc. […]

HepG2 cells = test: Apoptosis by Hoechst 33342 staining, laser scanning confocal microscope; type: cell-based; conditions: HepG2, 20 μM, 48 h, 200 cells counted; control less than five percent
Description: Apoptosis, or namely programmed cell death, can be triggered by several stimuli. Both naphthalimides and polyamine derivatives could trigger cell apoptosis. In order to determine whether the antitumor-proliferative effect of compound 7f was associated with cell apoptosis, the HepG2 cell apoptosis was detected by the staining of DNA with Hoechst 33342, and the apoptotic cells were counted by selecting 200 cells randomly (Figure 4). The apoptotic bodies were observed clearly in 7f-treated groups by laser scanning confocal microscope. 7f could trigger apoptosis in a dose-dependent manner with the 47.0% apoptotic ratio of 7f at 20 μM compared with the less than five percent in the control group. Exponentially growing HepG2 cells were seeded in 96 well plates (6 × 10^4 cells/well) and treated with indicated concentrations of 7f. After incubated for 48 h, cells were washed three times with PBS, and finally stained with 10 μM Hoechst 33342 in the dark at 37 °C for 20 min. They were detected by laser scanning confocal microscope and the apoptotic cells were count by selecting 200 cells randomly.

KSV (Stern-Volmer quenching constant) (herring sperm DNA; 298 K): 5567 L/mol | KSV (Stern-Volmer quenching constant) (herring sperm DNA; 303 K): 4789 L/mol | KSV (Stern-Volmer quenching constant) (herring sperm DNA; 310 K): 3651 L/mol | KSV (Stern-Volmer quenching constant) (herring sperm DNA-EB; 298 K): 5028 L/mol | KSV (Stern-Volmer quenching constant) (herring sperm DNA-EB; 303 K): 4564 L/mol | KSV (Stern-Volmer quenching constant) (herring sperm DNA-EB; 310 K): 4176 L/mol
SMILES: Cl.Cl.NCCCCNCCCN1C(=O)c2cccc3cccc(c23)C1=O [Compound 7f, 2-[3-(4-Aminobutylamino)propyl]1H-benz-[de]isoquinoline-1,3(2H)-dione dihydrochloride]
apoptotic ratio (HepG2 cells): 47.0%
